Experimental data published in PMC8968748 (Journal of medicinal chemistry, 2021).
Where two headings read alike, the source gives them in different places. Values belong to the compound of their own block, whether it stands above or below them.

Assays:
IDH1 R132H = IDH1 R132H (Homo sapiens, UniProt O75874, R132H); assay: diaphorase/resazurin-coupled mIDH1 R132H enzyme assay; format: biochemical; conditions: for IC50: average of N = 3, reported only where ≥75% inhibition at 38 μM; for mIDH1 inhibitory activity: R132H and R132C mIDH1, Table 2 is an image; for fold improvement in potency compared to analog 70: mIDH1 R132H, relative to 70
IDH1 R132H, sequence (O75874 whole entry R132H): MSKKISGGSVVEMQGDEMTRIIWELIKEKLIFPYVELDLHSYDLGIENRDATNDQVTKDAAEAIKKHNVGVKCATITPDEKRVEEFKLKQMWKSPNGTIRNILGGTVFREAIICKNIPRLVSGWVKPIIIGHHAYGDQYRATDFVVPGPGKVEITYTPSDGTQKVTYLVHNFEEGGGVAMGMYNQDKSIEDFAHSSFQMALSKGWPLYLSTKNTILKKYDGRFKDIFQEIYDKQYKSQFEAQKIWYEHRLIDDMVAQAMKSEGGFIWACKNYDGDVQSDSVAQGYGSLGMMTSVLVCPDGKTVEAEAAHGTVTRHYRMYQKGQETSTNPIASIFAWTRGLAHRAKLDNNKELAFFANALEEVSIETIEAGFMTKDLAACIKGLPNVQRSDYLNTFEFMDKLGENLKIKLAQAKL

[1] = Parallel artificial membrane permeability assay; format: in vitro ADME; conditions: pH 7.4
IDH1 R132C = IDH1 R132C (Homo sapiens, UniProt O75874, R132C); assay: diaphorase/resazurin-coupled mIDH1 R132C enzyme assay; format: biochemical; conditions: read-out: IDH1 R132C % inhibition ± SD at 38 μM
IDH1 R132C, sequence (O75874 whole entry R132C): as the sequence (O75874 whole entry R132H) above, with H132C counted along it

PAMPA (10^−6 cm/s) [1]: 549 10^−6 cm/s
Compound: CCc1ccc(OC)cc1-n1c(C=C(C)C)c(C(=O)N2CCNCC2)cc(-c2nc(-c3ccc(Cl)cc3)cs2)c1=O (mixture of isomers) [Compound 118, 3-(4-(4-Chlorophenyl)thiazol-2-yl)-1-(2-ethyl-5-methoxyphenyl)-6-(2-methylprop-1-en-1-yl)-5-(piperazine-1-carbonyl)pyridin-2(1H)-one]

IC50 (IDH1 R132H; IDH1 R132H IC50(μM) ± SD): 0.42 ± 0.05 µM
Compound: CCc1ccc(OC)cc1-n1c(C=C(C)C)c(C(=O)N2CCNCC2)cc(-c2nc(-c3ccc(Cl)cc3)cs2)c1=O (single isomer, unassigned) [(−)-118]

IC50 (IDH1 R132H; IDH1 R132H IC50(μM) ± SD): 0.25 ± 0.04 µM
Compound: CCc1ccc(Cl)cc1-n1c(C=C(C)C)c(C(=O)N2CCNCC2)cc(-c2nc(-c3ccc(Cl)cc3)cs2)c1=O (single isomer, unassigned) [(−)-119]

mIDH1 inhibitory activity (IDH1 R132H): completely inactive
Compound: COc1ccc(OC)c(-n2cccc(-c3nc(-c4ccc(Cl)cc4)cs3)c2=O)c1 [Compound 2, 3-(4-(4-Chlorophenyl)thiazol-2-yl)-1-(2,5-dimethoxyphenyl)pyridin-2(1H)-one]

mIDH1 inhibitory activity (IDH1 R132H): completely inactive
Compound: COc1ccc(OC)c(-n2c(C)ccc(-c3nc(-c4ccc(Cl)cc4)cs3)c2=O)c1 [Compound 3, 3-(4-(4-Chlorophenyl)thiazol-2-yl)-1-(2,5-dimethoxyphenyl)-6-methylpyridin-2(1H)-one]

IC50 (IDH1 R132H; IDH1 R132H IC50(μM) ± SD): > 38 µM
Compound: COc1cc(C(=O)O)ccc1-n1c2c(cc(-c3nc(-c4ccc(Cl)cc4)cs3)c1=O)C(=O)CC(C)(C)C2 [Compound 57, 4-(3-(4-(4-Chlorophenyl)thiazol-2-yl)-7,7-dimethyl-2,5-dioxo-5,6,7,8-tetrahydroquinolin-1(2H)-yl)-3-methoxybenzoic acid]

fold improvement in potency compared to analog 70 (IDH1 R132H): 3 fold
Compound: CCc1cccc(CC)c1-n1c(C)c(C(=O)NCCO)cc(-c2nc(-c3ccc(Cl)cc3)cs2)c1=O [Compound 75, 5-(4-(4-Chlorophenyl)thiazol-2-yl)-1-(2,6-diethylphenyl)-N-(2-hydroxyethyl)-2-methyl-6-oxo-1,6-dihydropyridine-3-carboxamide]

fold improvement in potency compared to analog 70 (IDH1 R132H): 3 fold
Compound: CCc1cccc(CC)c1-n1c(C)c(C(=O)NCCN)cc(-c2nc(-c3ccc(Cl)cc3)cs2)c1=O [Compound 78, N-(2-Aminoethyl)-5-(4-(4-chlorophenyl)thiazol-2-yl)-1-(2,6-diethylphenyl)-2-methyl-6-oxo-1,6-dihydropyridine-3-carboxamide]

PAMPA (10^−6 cm/s) [1]: 40 10^−6 cm/s
Compound: CCc1cccc(CC)c1-n1c(C=C(C)C)c(C(=O)N2CCNCC2C)cc(-c2nc(-c3ccc(Cl)cc3)cs2)c1=O (stereo not shown) [Compound 100, 3-(4-(4-Chlorophenyl)thiazol-2-yl)-1-(2,6-diethylphenyl)-5-(2-methylpiperazine-1-carbonyl)-6-(2-methylprop-1-en-1-yl)pyridin-2(1H)-one]

PAMPA (10^−6 cm/s) [1]: 48 10^−6 cm/s
Compound: CCc1cccc(CC)c1-n1c(C=C(C)C)c(C(=O)N2CCNC3(CC3)C2)cc(-c2nc(-c3ccc(Cl)cc3)cs2)c1=O [Compound 103, 3-(4-(4-Chlorophenyl)thiazol-2-yl)-1-(2,6-diethylphenyl)-6-(2-methylprop-1-en-1-yl)-5-(4,7-diazaspiro[2.5]octane-7-carbonyl)pyridin-2(1H)-one]

PAMPA (10^−6 cm/s) [1]: 275 10^−6 cm/s
Compound: CCc1cccc(CC)c1-n1c(C=C(C)C)c(C(=O)N2CCNC(=O)C2)cc(-c2nc(-c3ccc(Cl)cc3)cs2)c1=O [Compound 105, 4-(5-(4-(4-Chlorophenyl)thiazol-2-yl)-1-(2,6-diethylphenyl)-2-(2-methylprop-1-en-1-yl)-6-oxo-1,6-dihydropyridine-3-carbonyl)piperazin-2-one]

PAMPA (10^−6 cm/s) [1]: <1 10^−6 cm/s
Compound: CCc1cccc(CC)c1-n1c(C=C(C)C)c(C(=O)N2CCNC(C(=O)O)C2)cc(-c2nc(-c3ccc(Cl)cc3)cs2)c1=O (stereo not shown) [Compound 108, 4-(5-(4-(4-Chlorophenyl)thiazol-2-yl)-1-(2,6-diethylphenyl)-2-(2-methylprop-1-en-1-yl)-6-oxo-1,6-dihydropyridine-3-carbonyl)piperazine-2-carboxylic acid]

Continued, compound first:

Compound: 3-(4-(4-Chlorophenyl)thiazol-2-yl)-1-(2-ethyl-6-methylphenyl)-6-(2-methylprop-1-en-1-yl)-5-(piperazine-1-carbonyl)pyridin-2(1H)-one [Compound 115]
IC50 (IDH1 R132H; read-out: IDH1 R132H IC50(μM) ± SD): 0.27 µM

Compound: COc1ccc(OC)c(-n2c3c(cc(-c4nc(-c5ccccc5)cs4)c2=O)C(=O)CC(C)(C)C3)c1 [Compound 11, 1-(2,5-Dimethoxyphenyl)-7,7-dimethyl-3-(4-phenylthiazol-2-yl)-7,8-dihydroquinoline-2,5(1H,6H)-dione]
mIDH1 inhibitory activity (IDH1 R132H): essentially equipotent to 1 against R132H mIDH1

Compound: COc1ccc(OC)c(-n2c3c(cc(-c4cccc(-c5ccc(Cl)cc5)c4)c2=O)C(=O)CC(C)(C)C3)c1 [Compound 23, 3-(4’-Chloro-[1,1’-biphenyl]-3-yl)-1-(2,5-dimethoxyphenyl)-7,7-dimethyl-7,8-dihydroquinoline-2,5(1H,6H)-dione]
mIDH1 inhibitory activity (IDH1 R132H): complete loss in mIDH1 inhibitory activity

Compound: COc1ccc(OC)c(-n2c3c(cc(-c4ccc(-c5ccccc5)cc4)c2=O)C(=O)CC(C)(C)C3)c1 [Compound 24, 3-([1,1’-Biphenyl]-4-yl)-1-(2,5-dimethoxyphenyl)-7,7-dimethyl-7,8-dihydroquinoline-2,5(1H,6H)-dione]
mIDH1 inhibitory activity (IDH1 R132H): complete loss in mIDH1 inhibitory activity

Compound: COc1ccc(OC)c(-n2c3c(cc(-c4cccc(-c5ccc(Cl)cc5)n4)c2=O)C(=O)CC(C)(C)C3)c1 [Compound 25, 3-(6-(4-Chlorophenyl)pyridin-2-yl)-1-(2,5-dimethoxyphenyl)-7,7-dimethyl-7,8-dihydroquinoline-2,5(1H,6H)-dione]
mIDH1 inhibitory activity (IDH1 R132H): retained some activity

Compound: CCOc1ccccc1-n1c2c(cc(-c3nc(-c4ccc(Cl)cc4)cs3)c1=O)C(=O)CC(C)(C)C2 [Compound 29, 3-(4-(4-Chlorophenyl)thiazol-2-yl)-1-(2-ethoxyphenyl)-7,7-dimethyl-7,8-dihydroquinoline-2,5(1H,6H)-dione]
IC50 (IDH1 R132H; IDH1 R132H IC50(μM) ± SD): 0.51 ± 0.03 µM

Compound: CC(c1ccccc1)n1c2c(cc(-c3nc(-c4ccc(Cl)cc4)cs3)c1=O)C(=O)CC(C)(C)C2 (stereo not shown) [Compound 48, 3-(4-(4-Chlorophenyl)thiazol-2-yl)-7,7-dimethyl-1-(1-phenylethyl)-7,8-dihydroquinoline-2,5(1H,6H)-dione]
inhibition at 38 µM (IDH1 R132C): 34 ± 1%
IC50 (IDH1 R132H; IDH1 R132H IC50(μM) ± SD): > 38 µM

Compound: CCc1cccc(CC)c1-n1c(C=C(C)C)c(C(=O)N2C[C@H]3CC[C@@H](C2)N3)cc(-c2nc(-c3ccc(Cl)cc3)cs2)c1=O [Compound 111, 5-((1R,5S)-3,8-Diazabicyclo[3.2.1]octane-3-carbonyl)-3-(4-(4-chlorophenyl)thiazol-2-yl)-1-(2,6-diethylphenyl)-6-(2-methylprop-1-en-1-yl)pyridin-2(1H)-one]
PAMPA (10^−6 cm/s) [1]: 89 10^−6 cm/s

Compound: CCc1cccc(CC)c1-n1c(C=C(C)C)c(C(=O)N2C3CCC2CNC3)cc(-c2nc(-c3ccc(Cl)cc3)cs2)c1=O [Compound 112, 5-(3,8-Diazabicyclo[3.2.1]octane-8-carbonyl)-3-(4-(4-chlorophenyl)thiazol-2-yl)-1-(2,6-diethylphenyl)-6-(2-methylprop-1-en-1-yl)pyridin-2(1H)-one]
PAMPA (10^−6 cm/s) ([1]; PAMPA, 30 min, 0.05 mM): 99 10^−6 cm/s
